# From patent US10010545B1, “Antibiotic compositions and methods of use” (University of South Florida, priority 2013, dated 2018)
# Tests used:
# [1] = tested on: Enterococcus faecium; assay: Growth testing against ESKAPE pathogens: Enterococcus faecium; type: cell-based; parameters: key: Growth; X: No Growth
# Protocol: (§1) Six analogs (FIG. 2) of the ciprofloxacin-N thiolated β-lactam were successfully synthesized. All these compounds were then tested against ESKAPE pathogens for bioactivity. The ESKAPE pathogens are a collection of six deadly superbugs, Enterococcus faecium, Staphylococcus aureus, Klebsiella pneumoniae, Acinetobacter baumannii, Pseudomonas aeruginosa, and Enterobacter species. […] G denotes growth and X denotes no growth in the tables.
# [2] = tested on: Pseudomonas aeruginosa; assay: Growth testing against ESKAPE pathogens: Pseudomonas aeruginosa; type: cell-based; parameters: key: Growth; X: No Growth
# Protocol: as §1
# [3] = tested on: Klebesiella pneumonia; assay: Growth testing against ESKAPE pathogens: Klebesiella pneumonia; type: cell-based, Klebsiella pneumoniae; parameters: key: Growth; X: No Growth
# Protocol: as §1
# [4] = tested on: Staphylococcus aureus; assay: Growth testing against ESKAPE pathogens: Staphylococcus aureus; type: cell-based; parameters: key to Activity against Staphylococcus aureus (growth observed): Growth; X: No Growth
# Protocol: as §1
# [5] = tested on: Acinetobacter baumannii; assay: Growth testing against ESKAPE pathogens: Acinetobacter baumannii; type: cell-based; parameters: key: Growth; X: No Growth
# Protocol: as §1
structure (smiles),measurement,setting,value
CCCCCC(=O)N1CCN(c2cc3c(cc2F)c(=O)c(C(=O)OC2C(=O)N(c4ccc(OC)cc4)C2c2ccccc2Cl)cn3C2CC2)CC1 (stereo not shown) [Lactam 128],Activity against Enterococcus faecium (growth observed),[1]; 1 μg/ml,G
same,Activity against Enterococcus faecium (growth observed),[1]; 2 μg/ml,G
same,Activity against Enterococcus faecium (growth observed),[1]; 3 μg/ml,G
same,Activity against Enterococcus faecium (growth observed),[1]; 4 μg/ml,G
same,Activity against Enterococcus faecium (growth observed),[1]; 5 μg/ml,G
same,Activity against Enterococcus faecium (growth observed),[1]; 6 μg/ml,G
same,Activity against Enterococcus faecium (growth observed),[1]; 7 μg/ml,G
same,Activity against Enterococcus faecium (growth observed),[1]; 8 μg/ml,G
same,Activity against Enterococcus faecium (growth observed),[1]; 9 μg/ml,G
same,Activity against Enterococcus faecium (growth observed),[1]; 10 μg/ml,G
same,Activity against Enterococcus faecium (growth observed),[1]; 25 μg/ml,G
same,Activity against Pseudomonas aeruginosa (growth observed),[2]; 1 μg/ml,G
same,Activity against Pseudomonas aeruginosa (growth observed),[2]; 2 μg/ml,G
same,Activity against Pseudomonas aeruginosa (growth observed),[2]; 3 μg/ml,G
same,Activity against Pseudomonas aeruginosa (growth observed),[2]; 4 μg/ml,G
same,Activity against Pseudomonas aeruginosa (growth observed),[2]; 5 μg/ml,G
same,Activity against Pseudomonas aeruginosa (growth observed),[2]; 6 μg/ml,G
same,Activity against Pseudomonas aeruginosa (growth observed),[2]; 7 μg/ml,G
same,Activity against Pseudomonas aeruginosa (growth observed),[2]; 8 μg/ml,G
same,Activity against Pseudomonas aeruginosa (growth observed),[2]; 9 μg/ml,G
same,Activity against Pseudomonas aeruginosa (growth observed),[2]; 10 μg/ml,G
same,Activity against Pseudomonas aeruginosa (growth observed),[2]; 25 μg/ml,G
same,Activity against Klebesiella pneumonia (growth observed),[3]; 1 μg/ml,G
same,Activity against Klebesiella pneumonia (growth observed),[3]; 2 μg/ml,G
same,Activity against Klebesiella pneumonia (growth observed),[3]; 3 μg/ml,G
same,Activity against Klebesiella pneumonia (growth observed),[3]; 4 μg/ml,G
same,Activity against Klebesiella pneumonia (growth observed),[3]; 5 μg/ml,G
same,Activity against Klebesiella pneumonia (growth observed),[3]; 6 μg/ml,G
same,Activity against Klebesiella pneumonia (growth observed),[3]; 7 μg/ml,G
same,Activity against Klebesiella pneumonia (growth observed),[3]; 8 μg/ml,G
same,Activity against Klebesiella pneumonia (growth observed),[3]; 9 μg/ml,G
same,Activity against Klebesiella pneumonia (growth observed),[3]; 10 μg/ml,G
same,Activity against Klebesiella pneumonia (growth observed),[3]; 25 μg/ml,G
same,Activity against Staphylococcus aureus (growth observed),[4]; 1 μg/ml,G
same,Activity against Staphylococcus aureus (growth observed),[4]; 2 μg/ml,G
same,Activity against Staphylococcus aureus (growth observed),[4]; 3 μg/ml,G
same,Activity against Staphylococcus aureus (growth observed),[4]; 4 μg/ml,G
same,Activity against Staphylococcus aureus (growth observed),[4]; 5 μg/ml,G
same,Activity against Staphylococcus aureus (growth observed),[4]; 6 μg/ml,G
same,Activity against Staphylococcus aureus (growth observed),[4]; 7 μg/ml,G
same,Activity against Staphylococcus aureus (growth observed),[4]; 8 μg/ml,G
same,Activity against Staphylococcus aureus (growth observed),[4]; 9 μg/ml,G
same,Activity against Staphylococcus aureus (growth observed),[4]; 10 μg/ml,G
same,Activity against Staphylococcus aureus (growth observed),[4]; 25 μg/ml,G
same,Activity against Acinetobacter baumannii (growth observed),[5]; 1 μg/ml,G
same,Activity against Acinetobacter baumannii (growth observed),[5]; 2 μg/ml,G
same,Activity against Acinetobacter baumannii (growth observed),[5]; 3 μg/ml,G
same,Activity against Acinetobacter baumannii (growth observed),[5]; 4 μg/ml,G
same,Activity against Acinetobacter baumannii (growth observed),[5]; 5 μg/ml,G
same,Activity against Acinetobacter baumannii (growth observed),[5]; 6 μg/ml,G
same,Activity against Acinetobacter baumannii (growth observed),[5]; 7 μg/ml,G
same,Activity against Acinetobacter baumannii (growth observed),[5]; 8 μg/ml,G
same,Activity against Acinetobacter baumannii (growth observed),[5]; 9 μg/ml,G
same,Activity against Acinetobacter baumannii (growth observed),[5]; 10 μg/ml,G
same,Activity against Acinetobacter baumannii (growth observed),[5]; 25 μg/ml,G
CCCCCC(=O)N1CCN(c2cc3c(cc2F)c(=O)c(C(=O)OC2C(=O)N(SC(C)CC)C2c2ccccc2Cl)cn3C2CC2)CC1 (stereo not shown) [Lactam 129],Activity against Enterococcus faecium (growth observed),[1]; 1 μg/ml,G
same,Activity against Enterococcus faecium (growth observed),[1]; 2 μg/ml,G
same,Activity against Enterococcus faecium (growth observed),[1]; 3 μg/ml,G
same,Activity against Enterococcus faecium (growth observed),[1]; 4 μg/ml,G
same,Activity against Enterococcus faecium (growth observed),[1]; 5 μg/ml,G
same,Activity against Enterococcus faecium (growth observed),[1]; 6 μg/ml,G
same,Activity against Enterococcus faecium (growth observed),[1]; 7 μg/ml,G
same,Activity against Enterococcus faecium (growth observed),[1]; 8 μg/ml,G
same,Activity against Enterococcus faecium (growth observed),[1]; 9 μg/ml,G
same,Activity against Enterococcus faecium (growth observed),[1]; 10 μg/ml,G
same,Activity against Enterococcus faecium (growth observed),[1]; 25 μg/ml,G
same,Activity against Pseudomonas aeruginosa (growth observed),[2]; 1 μg/ml,G
same,Activity against Pseudomonas aeruginosa (growth observed),[2]; 2 μg/ml,G
same,Activity against Pseudomonas aeruginosa (growth observed),[2]; 3 μg/ml,G
same,Activity against Pseudomonas aeruginosa (growth observed),[2]; 4 μg/ml,G
same,Activity against Pseudomonas aeruginosa (growth observed),[2]; 5 μg/ml,G
same,Activity against Pseudomonas aeruginosa (growth observed),[2]; 6 μg/ml,G
same,Activity against Pseudomonas aeruginosa (growth observed),[2]; 7 μg/ml,G
same,Activity against Pseudomonas aeruginosa (growth observed),[2]; 8 μg/ml,G
same,Activity against Pseudomonas aeruginosa (growth observed),[2]; 9 μg/ml,G
same,Activity against Pseudomonas aeruginosa (growth observed),[2]; 10 μg/ml,G
same,Activity against Pseudomonas aeruginosa (growth observed),[2]; 25 μg/ml,G
same,Activity against Klebesiella pneumonia (growth observed),[3]; 1 μg/ml,G
same,Activity against Klebesiella pneumonia (growth observed),[3]; 2 μg/ml,G
same,Activity against Klebesiella pneumonia (growth observed),[3]; 3 μg/ml,G
same,Activity against Klebesiella pneumonia (growth observed),[3]; 4 μg/ml,G
same,Activity against Klebesiella pneumonia (growth observed),[3]; 5 μg/ml,G
same,Activity against Klebesiella pneumonia (growth observed),[3]; 6 μg/ml,G
same,Activity against Klebesiella pneumonia (growth observed),[3]; 7 μg/ml,G
same,Activity against Klebesiella pneumonia (growth observed),[3]; 8 μg/ml,G
same,Activity against Klebesiella pneumonia (growth observed),[3]; 9 μg/ml,G
same,Activity against Klebesiella pneumonia (growth observed),[3]; 10 μg/ml,G
same,Activity against Klebesiella pneumonia (growth observed),[3]; 25 μg/ml,G
same,Activity against Staphylococcus aureus (growth observed),[4]; 1 μg/ml,G
same,Activity against Staphylococcus aureus (growth observed),[4]; 2 μg/ml,G
same,Activity against Staphylococcus aureus (growth observed),[4]; 3 μg/ml,G
same,Activity against Staphylococcus aureus (growth observed),[4]; 4 μg/ml,G
same,Activity against Staphylococcus aureus (growth observed),[4]; 5 μg/ml,G
same,Activity against Staphylococcus aureus (growth observed),[4]; 6 μg/ml,G
same,Activity against Staphylococcus aureus (growth observed),[4]; 7 μg/ml,G
same,Activity against Staphylococcus aureus (growth observed),[4]; 8 μg/ml,G
same,Activity against Staphylococcus aureus (growth observed),[4]; 9 μg/ml,G
same,Activity against Staphylococcus aureus (growth observed),[4]; 10 μg/ml,G
same,Activity against Staphylococcus aureus (growth observed),[4]; 25 μg/ml,G
same,Activity against Acinetobacter baumannii (growth observed),[5]; 1 μg/ml,G
same,Activity against Acinetobacter baumannii (growth observed),[5]; 2 μg/ml,G
same,Activity against Acinetobacter baumannii (growth observed),[5]; 3 μg/ml,G
same,Activity against Acinetobacter baumannii (growth observed),[5]; 4 μg/ml,G
same,Activity against Acinetobacter baumannii (growth observed),[5]; 5 μg/ml,G
same,Activity against Acinetobacter baumannii (growth observed),[5]; 6 μg/ml,G
same,Activity against Acinetobacter baumannii (growth observed),[5]; 7 μg/ml,G
same,Activity against Acinetobacter baumannii (growth observed),[5]; 8 μg/ml,G
same,Activity against Acinetobacter baumannii (growth observed),[5]; 9 μg/ml,G
same,Activity against Acinetobacter baumannii (growth observed),[5]; 10 μg/ml,G
same,Activity against Acinetobacter baumannii (growth observed),[5]; 25 μg/ml,G
CCCCCCC(=O)N1CCN(c2cc3c(cc2F)c(=O)c(C(=O)OC2C(=O)N(SC(C)CC)C2c2ccccc2Cl)cn3C2CC2)CC1 (stereo not shown) [Lactam 130],Activity against Enterococcus faecium (growth observed),[1]; 1 μg/ml,G
same,Activity against Enterococcus faecium (growth observed),[1]; 2 μg/ml,G
same,Activity against Enterococcus faecium (growth observed),[1]; 3 μg/ml,G
same,Activity against Enterococcus faecium (growth observed),[1]; 4 μg/ml,G
same,Activity against Enterococcus faecium (growth observed),[1]; 5 μg/ml,G
same,Activity against Enterococcus faecium (growth observed),[1]; 6 μg/ml,G
same,Activity against Enterococcus faecium (growth observed),[1]; 7 μg/ml,G
same,Activity against Enterococcus faecium (growth observed),[1]; 8 μg/ml,G
same,Activity against Enterococcus faecium (growth observed),[1]; 9 μg/ml,G
same,Activity against Enterococcus faecium (growth observed),[1]; 10 μg/ml,G
same,Activity against Enterococcus faecium (growth observed),[1]; 25 μg/ml,G
same,Activity against Pseudomonas aeruginosa (growth observed),[2]; 1 μg/ml,G
same,Activity against Pseudomonas aeruginosa (growth observed),[2]; 2 μg/ml,G
same,Activity against Pseudomonas aeruginosa (growth observed),[2]; 3 μg/ml,G
same,Activity against Pseudomonas aeruginosa (growth observed),[2]; 4 μg/ml,G
same,Activity against Pseudomonas aeruginosa (growth observed),[2]; 5 μg/ml,G
same,Activity against Pseudomonas aeruginosa (growth observed),[2]; 6 μg/ml,G
same,Activity against Pseudomonas aeruginosa (growth observed),[2]; 7 μg/ml,G
same,Activity against Pseudomonas aeruginosa (growth observed),[2]; 8 μg/ml,G
same,Activity against Pseudomonas aeruginosa (growth observed),[2]; 9 μg/ml,G
same,Activity against Pseudomonas aeruginosa (growth observed),[2]; 10 μg/ml,G
same,Activity against Pseudomonas aeruginosa (growth observed),[2]; 25 μg/ml,G
same,Activity against Klebesiella pneumonia (growth observed),[3]; 1 μg/ml,G
same,Activity against Klebesiella pneumonia (growth observed),[3]; 2 μg/ml,G
same,Activity against Klebesiella pneumonia (growth observed),[3]; 3 μg/ml,G
same,Activity against Klebesiella pneumonia (growth observed),[3]; 4 μg/ml,G
same,Activity against Klebesiella pneumonia (growth observed),[3]; 5 μg/ml,G
same,Activity against Klebesiella pneumonia (growth observed),[3]; 6 μg/ml,G
same,Activity against Klebesiella pneumonia (growth observed),[3]; 7 μg/ml,G
same,Activity against Klebesiella pneumonia (growth observed),[3]; 8 μg/ml,G
same,Activity against Klebesiella pneumonia (growth observed),[3]; 9 μg/ml,G
same,Activity against Klebesiella pneumonia (growth observed),[3]; 10 μg/ml,G
same,Activity against Klebesiella pneumonia (growth observed),[3]; 25 μg/ml,G
same,Activity against Staphylococcus aureus (growth observed),[4]; 1 μg/ml,G
same,Activity against Staphylococcus aureus (growth observed),[4]; 2 μg/ml,G
same,Activity against Staphylococcus aureus (growth observed),[4]; 3 μg/ml,G
same,Activity against Staphylococcus aureus (growth observed),[4]; 4 μg/ml,G
same,Activity against Staphylococcus aureus (growth observed),[4]; 5 μg/ml,G
same,Activity against Staphylococcus aureus (growth observed),[4]; 6 μg/ml,G
same,Activity against Staphylococcus aureus (growth observed),[4]; 7 μg/ml,G
same,Activity against Staphylococcus aureus (growth observed),[4]; 8 μg/ml,G
same,Activity against Staphylococcus aureus (growth observed),[4]; 9 μg/ml,G
same,Activity against Staphylococcus aureus (growth observed),[4]; 10 μg/ml,X
same,Activity against Staphylococcus aureus (growth observed),[4]; 25 μg/ml,X
same,MIC,[4]; against S. aureus,10 µg/mL
same,Activity against Acinetobacter baumannii (growth observed),[5]; 1 μg/ml,G
same,Activity against Acinetobacter baumannii (growth observed),[5]; 2 μg/ml,G
same,Activity against Acinetobacter baumannii (growth observed),[5]; 3 μg/ml,G
same,Activity against Acinetobacter baumannii (growth observed),[5]; 4 μg/ml,G
same,Activity against Acinetobacter baumannii (growth observed),[5]; 5 μg/ml,G
same,Activity against Acinetobacter baumannii (growth observed),[5]; 6 μg/ml,G
same,Activity against Acinetobacter baumannii (growth observed),[5]; 7 μg/ml,G
same,Activity against Acinetobacter baumannii (growth observed),[5]; 8 μg/ml,G
same,Activity against Acinetobacter baumannii (growth observed),[5]; 9 μg/ml,G
same,Activity against Acinetobacter baumannii (growth observed),[5]; 10 μg/ml,G
same,Activity against Acinetobacter baumannii (growth observed),[5]; 25 μg/ml,G
